In patent publication US9353075B2, “Disubstituted beta-lactones as inhibitors of N-acylethanolamine acid amidase (NAAA)” (The Regents of the University of California, priority 2011, dated 2016):

Target: r-NAAA (Rattus norvegicus (Rat), UniProt Q5KTC7)
Assay: r-NAAA inhibition, rat lung lysosomal NAAA preparation, UPLC/MS
Type: biochemical
Settings: for inhibition at 3 µM: read-out: r-NAAA % inhib. @ 3 μM
Method: Lysosomal NAAA protein preparation were obtained by homogenizing male Sprague-Dawley rat lungs (Charles River) in 20 mM Tris-HCl buffer pH 7.4 containing 0.32M sucrose. Samples were centrifuged at 800×g for 15 minutes at 4° C. Supernatants were then centrifuged at 12,000 g for 30 minutes at 4° C. Pellets were then resuspended in PBS pH 7.4 and subjected to a freeze/thaw cycle at −80° C. The suspension was finally centrifuged at 105,000×g for 1 hour at 4° C. The supernatant was then used in the enzymatic assay.
NAAA protein preparation was pre-incubated with various concentrations of test compounds or vehicle control in 100 mM NaH2PO4/Citrate buffer, 1% Triton-X, 3 mM DTT (pH 4.5) for 30 minutes at 37° C. Samples were then incubated with heptadecenoylethanolamide (50 μM, Avanti Polar Lipids) at 37° C. for 30 min. The reaction was terminated by addition of cold methanol containing heptadecanoic acid (NuCheck Prep) as internal standard. Samples were then analyzed by UPLC/MS (Acquity, Waters). Heptadecenoic and heptadecanoic acids were eluted on an Acquity UPLC BEH C18 column (50 mm length, 2.1 mm i.d., 1.7 μm pore size, Waters) isocratically at 0.5 mL/min for 1.5 min with a solvent mixture of 95% methanol and 5% water, both containing 0.25% Acetic Acid and 5 mM Ammonium Acetate. The column temperature was 40° C. Electrospray ionization was in the negative mode, capillary voltage was 0.5 kV, cone voltage was […], desolvation temperature was 500° C. N2 was used as drying gas at a flow rate of 1000 L/hour and a temperature of 500° C. The [M−H]^− ion was monitored in the selected-ion monitoring mode (m/z values: heptadecenoic acid 267.37, heptadecanoic acid 269.37). Calibration curves were generated using commercial heptadecenoic acid (NuCheck Prep). Inhibition of NAAA activity was calculated as reduction of heptadecenoic acid in the samples compared to vehicle controls. IC50 values were calculated by non-linear regression analysis of log [concentration]/inhibition curves using GraphPad Prism 5 (GraphPad Software Inc., CA—USA) applying a standard slope curve fitting.

Sequence of r-NAAA (Q5KTC7 34-362): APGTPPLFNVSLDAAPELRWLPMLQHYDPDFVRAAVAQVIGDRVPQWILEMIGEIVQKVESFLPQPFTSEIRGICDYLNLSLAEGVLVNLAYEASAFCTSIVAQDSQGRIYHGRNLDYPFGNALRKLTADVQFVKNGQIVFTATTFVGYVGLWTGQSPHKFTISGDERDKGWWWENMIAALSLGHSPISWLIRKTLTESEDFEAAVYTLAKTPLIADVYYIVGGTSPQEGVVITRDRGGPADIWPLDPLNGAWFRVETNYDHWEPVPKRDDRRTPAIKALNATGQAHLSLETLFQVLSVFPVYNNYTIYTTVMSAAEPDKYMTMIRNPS

Row | Structure (SMILES) | IC50 | inhibition at 3 µM | further results
1 | C[C@@H]1OC(=O)[C@@H]1NC(=O)OCCCCCCc1ccccc1 [Example 34, 6-Phenylhexyl-N-[(2S,3R)-2-methyl-4-oxo-oxetan-3-yl]-carbamate] | 1170 nM | – | –
2 | C[C@@H]1OC(=O)[C@@H]1NC(=O)OC1(C)CCOCC1 [Example 11, (4-methyltetrahydropyran-4-yl)-N-[(2S,3R)-2-methyl-4-oxo-oxetan-3-yl]-carbamate] | 40000 nM | – | –
3 | C[C@@H]1OC(=O)[C@@H]1NC(=O)OC1(C)CCCCC1 [Example 10, (1-methylcyclohexyl)-[(2S,3R)-2-methyl-4-oxo-oxetan-3-yl]-carbamate] | 840 nM | – | –
4 | CC(C)[C@@H]1OC(=O)[C@@H]1NC(=O)OCc1ccc(-c2ccccc2)cc1 (relative stereo) [Example 54, (4-Phenylphenyl)-methyl-N-[(2S*,3R*)-2-isopropyl-4-oxo-oxetan-3-yl]-carbamate] | – | 53% | –
5 | C[C@@H]1OC(=O)[C@@H]1NC(=O)OCc1cccc(-c2ccccc2)c1 [Example 14, (3-phenylphenyl)-methyl-N-[(2S,3R)-2-methyl-4-oxo-oxetan-3-yl]-carbamate] | – | – | inhibition at 10 µM (read-out: r-NAAA % inhib. @ 10 μM): 28%
6 | CC(C)[C@H]1OC(=O)[C@@H]1NC(=O)OCCCCCc1ccccc1 (relative stereo) [Example 51, 5-Phenylpentyl-N-[(2R*,3R*)-2-isopropyl-4-oxo-oxetan-3-yl]-carbamate] | – | 92% | –
7 | Cc1ccc(CCOC(=O)N[C@H]2C(=O)O[C@H]2C)cc1 [Example 3, 2-(4-methylphenyl)ethyl-[(2S,3R)-2-methyl-4-oxooxetan-3-yl]-carbamate] | 1210 nM | – | –
8 | C[C@@H]1OC(=O)[C@@H]1NC(=O)OC1CCC(Cc2ccccc2)CC1 (mixture of isomers) [Example 30, (1s,4S) and (1r, 4R)-(4-Benzylcyclohexyl)-N-[(2S,3R)-2-methyl-4-oxooxetan-3-yl]-carbamate] | 310 nM | – | –
9 | CCCCCCOC(=O)N[C@H]1C(=O)O[C@H]1C [Example 39, Hexyl-N-[(2S,3R)-2-methyl-4-oxo-oxetan-3-yl]-carbamate] | 270 nM | – | –
10 | C[C@@H]1OC(=O)[C@@H]1NC(=O)OCCOCCc1ccccc1 [Example 36, 2-Phenethyloxyethyl-N-[(2S,3R)-2-methyl-4-oxo-oxetan-3-yl]-carbamate] | 140 nM | – | –
11 | CC(C)(C)[C@H]1OC(=O)[C@@H]1NC(=O)OCc1ccc(-c2ccccc2)cc1 (relative stereo) [Example 57, (4-Phenyl-phenyl)-methyl-N-[(2R*,3R*)-2-tert-butyl-4-oxo-oxetan-3-yl]-carbamate] | – | 73% | –
12 | C[C@@H]1OC(=O)[C@@H]1N(C)C(=O)OCCCCCc1ccccc1 [Example 41, 5-Phenylpentyl-N-methyl-N-[(2S,3R)-2-methyl-4-oxo-oxetan-3-yl]-carbamate] | – | – | r-NAAA IC50 (μM) or % inhib. (result in words): No inhib.
13 | CC(C)[C@H]1OC(=O)[C@@H]1NC(=O)OCc1ccc(-c2ccccc2)cc1 (relative stereo) [Example 52, (4-Phenylphenyl)-methyl-N-[(2R*,3R*)-2-isopropyl-4-oxo-oxetan-3-yl]-carbamate] | – | 93% | –
14 | CCCCC1(OC(=O)N[C@H]2C(=O)O[C@H]2C)COC1 [Example 24, (3-butyloxetan-3-yl)-N-[(2S,3R)-2-methyl-4-oxo-oxetan-3-yl]-carbamate] | 3760 nM | – | –
15 | C[C@@H]1OC(=O)[C@@H]1NC(=O)OC1CCC(=Cc2ccccc2)CC1 (stereo partly drawn) [Example 31, (R,Z) and (S,E)-(4-Benzylidenecyclohexyl)-N-[(2S,3R)-2-methyl-4-oxooxetan-3-yl]-carbamate] | 750 nM | – | –
16 | C[C@H]1OC(=O)[C@@H]1NC(=O)OCCCCCc1ccccc1 [Example 38, 5-Phenylpentyl-N-[(2R,3R)-2-methyl-4-oxo-oxetan-3-yl]-carbamate] | 18 nM | – | –

Row | Structure (SMILES) | IC50 | inhibition at 3 µM | further results
17 | CC(C)C(CCCCc1ccccc1)OC(=O)N[C@H]1C(=O)O[C@H]1C (mixture of isomers) [Example 28, [(1R) and (1S)-1-Isopropyl-5-phenyl-pentyl]-N-[(2S,3R)-2-methyl-4-oxo-oxetan-3-yl]-carbamate] | 100 nM | – | –
18 | CCCCCOC(=O)N[C@H]1C(=O)O[C@H]1C [Example 1, Pentyl-[(2S,3R)-2-methyl-4-oxooxetan-3-yl]-carbamate] | 670 nM | – | –
19 | CC[C@H]1OC(=O)[C@@H]1NC(=O)OCc1ccc(-c2ccccc2)cc1 (relative stereo) [Example 48, (4-Phenylphenyl)-methyl-N-[(2R*,3R*)-2-ethyl-4-oxo-oxetan-3-yl]-carbamate] | – | 100% | –
20 | C[C@@H]1OC(=O)[C@@H]1NC(=O)OCCCc1ccccc1 [Example 4, 3-phenylpropyl-[(2S,3R)-2-methyl-4-oxooxetan-3-yl]-carbamate] | 84 nM | – | –
21 | C[C@@H]1OC(=O)[C@@H]1NC(=O)OCCc1ccccc1 [Example 33, Phenethyl-N-[(2S,3R)-2-methyl-4-oxo-oxetan-3-yl]-carbamate] | 2520 nM | – | –
22 | C[C@@H]1OC(=O)[C@@H]1NC(=O)OC1CCN(C(=O)c2ccccc2)CC1 [Example 9, (1-benzoyl-4-piperidyl)-N-[(2S,3R)-2-methyl-4-oxo-oxetan-3-yl]-carbamate] | 1310 nM | – | –
23 | CCCCCCCOC(=O)N[C@H]1C(=O)O[C@H]1C [Example 40, Heptyl-N-[(2S,3R)-2-methyl-4-oxo-oxetan-3-yl]-carbamate] | 40 nM | – | –
24 | CC(C)(C)[C@@H]1OC(=O)[C@@H]1NC(=O)OCc1ccc(-c2ccccc2)cc1 (relative stereo) [Example 59, (4-Phenyl-phenyl)-methyl-N-[(2S*,3R*)-2-tert-butyl-4-oxo-oxetan-3-yl]-carbamate] | – | 57% | –
25 | C[C@H]1OC(=O)[C@H]1NC(=O)OCCCCCc1ccccc1 [Example 37, 5-Phenylpentyl-N-[(2R,3S)-2-methyl-4-oxo-oxetan-3-yl]-carbamate] | 3530 nM | – | –
26 | CC(C)[C@@H]1OC(=O)[C@@H]1NC(=O)OCCCCCc1ccccc1 (relative stereo) [Example 53, 5-Phenylpentyl-N-[(2S*,3R*)-2-isopropyl-4-oxo-oxetan-3-yl]-carbamate] | – | 55% | –
27 | CC[C@@H]1OC(=O)[C@@H]1NC(=O)OCc1ccc(-c2ccccc2)cc1 (relative stereo) [Example 50, (4-Phenylphenyl)-methyl-N-[(2S*,3R*)-2-ethyl-4-oxo-oxetan-3-yl]-carbamate] | – | 100% | –
28 | CCC1OC(=O)C1NC(=O)OC(C)(C)C (stereo not drawn) [Example 13, tert-Butyl-N-[(2S*,3R*)-2-ethyl-4-oxo-oxetan-3-yl]-carbamate and tert-Butyl-N-[(2S*,3S*)-2-ethyl-4-oxo-oxetan-3-yl]-carbamate] | – | 48% | –
29 | C[C@@H]1OC(=O)[C@@H]1NC(=O)OCCCCCCCc1ccccc1 [Example 16, 7-Phenylheptyl-N-[(2S,3R)-2-methyl-4-oxo-oxetan-3-yl]-carbamate] | 110 nM | – | –
30 | C[C@@H]1OC(=O)[C@@H]1NC(=O)OC1(C)CCCC1 [Example 23, (1-Methylcyclopentyl) N-[(2S,3R)-2-methyl-4-oxo-oxetan-3-yl]-carbamate] | 1230 nM | – | –
31 | C[C@@H]1OC(=O)[C@@H]1NC(=O)Oc1ccc(OCc2ccccc2)cc1 [Example 26, (4-benzyloxyphenyl)-N-[(2S,3R)-2-methyl-4-oxo-oxetan-3-yl]-carbamate] | 290 nM | – | –
32 | C[C@@H]1OC(=O)[C@@H]1NC(=O)OC1CCN(Cc2ccccc2)CC1 [Example 21, (1-benzyl-4-piperidyl)-N-[(2S,3R)-2-methyl-4-oxo-oxetan-3-yl]-carbamate] | – | 21% | –
